These substances were tested against human insulin receptor (Homo sapiens, UniProt P06213) (assay: Insulin receptor binding, SPA (Scintillation Proximity Assay) microtiterplate antibody capture assay). Conditions: relative to human insulin; purified recombinant human insulin receptor - exon 11; A14 Tyr[125I]-human insulin tracer; 16 hours incubation.
Experimental: The affinity of the insulin analogues of the invention for the human insulin receptor was determined by a SPA assay (Scintillation Proximity Assay) microtiterplate antibody capture assay. SPA-PVT antibody-binding beads, anti-mouse reagent (Amersham Biosciences, Cat No. PRNQ0017) were mixed with 25 ml of binding buffer (100 mM HEPES pH 7.8; 100 mM sodium chloride, 10 mM MgSO4, 0.025% Tween-20). Reagent mix for a single Packard Optiplate (Packard No. 6005190) is composed of 2.4 μl of a 1:5000 diluted purified recombinant human insulin receptor—exon 11, an amount of a stock solution of A14 Tyr[^125I]-human insulin corresponding to 5000 cpm per 100 μl of reagent mix, 12 μl of a 1:1000 dilution of F12 antibody, 3 ml of SPA-beads and binding buffer to a total of 12 ml. A total of 100 μl was then added and a dilution series is made from appropriate samples. To the dilution series was then added 100 μl of reagent mix and the samples were incubated for 16 hours while gently shaken. The phases were the then separated by centrifugation for 1 min and the plates counted in a Topcounter. The binding data were fitted using the nonlinear regression algorithm in the GraphPad Prism 2.01 (GraphPad Software, San Diego, Calif.).

Chain of human insulin receptor (P06213 28-746 isoform P06213-2 limits assumed): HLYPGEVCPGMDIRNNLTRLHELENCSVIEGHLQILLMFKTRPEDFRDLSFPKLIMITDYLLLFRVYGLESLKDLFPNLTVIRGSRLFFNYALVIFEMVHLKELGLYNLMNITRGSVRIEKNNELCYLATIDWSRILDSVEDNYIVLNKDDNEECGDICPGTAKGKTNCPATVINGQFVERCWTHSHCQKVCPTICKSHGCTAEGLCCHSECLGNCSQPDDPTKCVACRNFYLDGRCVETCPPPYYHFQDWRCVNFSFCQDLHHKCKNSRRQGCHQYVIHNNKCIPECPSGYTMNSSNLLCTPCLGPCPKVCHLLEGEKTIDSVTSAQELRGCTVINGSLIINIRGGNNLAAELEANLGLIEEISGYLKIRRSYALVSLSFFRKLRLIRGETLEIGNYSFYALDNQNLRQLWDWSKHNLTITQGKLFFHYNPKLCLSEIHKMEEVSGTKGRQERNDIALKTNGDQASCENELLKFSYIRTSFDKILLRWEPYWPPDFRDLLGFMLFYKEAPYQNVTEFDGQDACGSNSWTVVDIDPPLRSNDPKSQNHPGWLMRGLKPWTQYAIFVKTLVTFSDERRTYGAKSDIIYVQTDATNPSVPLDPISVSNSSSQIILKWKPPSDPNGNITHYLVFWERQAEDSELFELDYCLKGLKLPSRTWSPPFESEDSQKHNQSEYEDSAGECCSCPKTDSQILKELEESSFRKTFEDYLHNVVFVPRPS
Chain of human insulin receptor (P06213 763-1382 partner limits assumed): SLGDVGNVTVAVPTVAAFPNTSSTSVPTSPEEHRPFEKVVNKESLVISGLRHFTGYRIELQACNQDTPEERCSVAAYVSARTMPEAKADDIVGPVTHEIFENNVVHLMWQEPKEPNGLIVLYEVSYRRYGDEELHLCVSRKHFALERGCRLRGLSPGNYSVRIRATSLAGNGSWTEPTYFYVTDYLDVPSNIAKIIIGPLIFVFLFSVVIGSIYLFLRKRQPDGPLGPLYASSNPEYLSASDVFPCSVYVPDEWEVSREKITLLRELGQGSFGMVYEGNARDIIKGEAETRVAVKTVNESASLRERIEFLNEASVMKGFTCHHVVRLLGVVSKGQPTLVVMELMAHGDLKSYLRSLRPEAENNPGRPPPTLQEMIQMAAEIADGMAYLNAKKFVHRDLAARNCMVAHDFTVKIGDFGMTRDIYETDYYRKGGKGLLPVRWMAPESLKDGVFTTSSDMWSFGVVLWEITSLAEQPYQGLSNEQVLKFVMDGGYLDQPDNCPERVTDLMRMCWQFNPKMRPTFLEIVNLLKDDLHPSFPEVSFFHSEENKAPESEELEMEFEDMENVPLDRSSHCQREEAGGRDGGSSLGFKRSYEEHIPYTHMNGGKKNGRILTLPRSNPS

| Substance | Insulin receptor affinity in relation to human insulin |
| --- | --- |
| N^εB29-(3-(2-{2-[2-(2-{2-[2-(2-{2-[2-(2-{2-[2-(13-carboxy-tridecanoylamino)-ethoxy]-ethoxy}-ethoxy)-ethoxy]-ethoxy}-ethoxy)-ethoxy]-ethoxy}-ethoxy)-ethoxy]-ethoxy}-ethoxy)-propionoyl-γ-glutamyl) desB30 human insulin [example 14] | 15 |
| N^εB29-3-[2-(2-{2-[2-(ω-carboxy-heptadecanoylamino)-ethoxy]-ethoxy}-ethoxy)-ethoxy]-propionyl-γ-glutamyl desB30 human insulin [example 6] | 8.3 |
| N^εB29-(3-[2-(2-(2-[2-(13-Carboxy-tridecanoylamino)-ethoxy)-ethoxy]-ethoxy)-ethoxy]-propionoyl-γ-glutamyl) desB30 human insulin [example 15] | 35 |
| N^εB29-(3-[2-(2-{2-[2-(2-{2-[2-(13-carboxy-tridecanoylamino)-ethoxy]-ethoxy)-ethoxy)-ethoxy]-ethoxy}-ethoxy)-ethoxy]-ethoxy}-propionoyl-γ-glutamyl) desB30 human insulin [example 16] | 31 |
| N^εB29-(ω-[2-(2-{2-[2-(2-carboxy-ethoxy)-ethoxy]-ethoxy}-ethoxy)-ethylcarbamoyl]-heptadecanoyl-γ-glutamyl) desB30 human insulin [example 5] | 5.6 |
| N^εB29-(3-[2-{2-(2-[ω-carboxy-pentadecanoyl-γ-glutamyl-(2-amino-ethoxy)]-ethoxy)-ethoxy}-ethoxy]-propionyl) desB30 human insulin [example 1] | 11 |
| N^εB29-(3-(3-{4-[3-(7-Carboxyheptanoylamino)propoxy]butoxy}propylcarbamoyl)-propionyl-γ-glutamyl) desB30 human insulin [example 8] | 34 |
| N^εB29-(ω-[2-(2-{2-[2-(2-carboxy-ethoxy)-ethoxy]-ethoxy}-ethoxy)-ethylcarbamoyl]-heptadecanoyl-α-glutamyl) desB30 human insulin [example 4] | 9.2 |

More lines, now with the values ahead:

| Insulin receptor affinity in relation to human insulin | Substance |
| --- | --- |
| 14 | N^εB29-{3-[2-(2-{2-[2-(15-carboxy-pentadecanoylamino)-ethoxy]-ethoxy}-ethoxy)-ethoxy]-propionyl-γ-glutamyl desB30 human insulin [example 3] |
| 27 | N^εB29-(3-(2-{2-[2-(9-carboxynonanoylamino)ethoxy]ethoxy}ethylcarbamoyl) propionyl-γ-glutamyl) desB30 human insulin [example 10] |
| 35 | N^εB29-(3-(3-{2-[2-(3-[7-carboxyheptanoylamino]propoxy)ethoxy]-ethoxy}propylcarbamoyl)propionyl) desB30 human insulin [example 7] |
| 17 | N^εB29-(3-(2-{2-[2-(15-Carboxy-pentadecanoylamino)-ethoxy]-ethoxy}-ethylcarbamoyl)-propionyl-γ-glutamyl) desB30 human insulin [example 17] |
| 34 | N^εB29-(3-(3-{2-[2-(3-[9-Carboxynonanoylamino]propoxy)ethoxy]ethoxy}-propylcarbamoyl)propionyl) desB30 human insulin [example 9] |
| 17 | N^εB29-(3-[2-(2-{2-[2-(15-carboxypentadecanoylamino)ethoxy]ethoxy}ethoxy)-ethoxy]propionyl)) desB30 human insulin [example 13] |
| 12 | N^εB29-(3-[2-{2-(2-[ω-carboxy-heptadecanoyl-γ-glutamyl-(2-amino-ethoxy)]-ethoxy)-ethoxy}-ethoxy]-propionyl) desB30 human insulin [example 2] |

From patent publication US8859493B2, “Insulin derivatives” (Novo Nordisk A/S, priority 2005, dated 2014)
